Data as given in patent publication US20260306640A1, “TECHNOLOGIES TARGETING CELL STATES” (Auron Therapeutics, Inc., priority 2023, published 2026).

Biological target: KAT2A (Homo sapiens, UniProt Q92830)
Assay: KAT2A degradation, Western Blot (Jess), MOLM-13 cells
Type: cell-based
Parameters: degrader, Western blot
Conditions: MOLM-13 cells, KAT2A, 24 h, Western Blot, vs DMSO; read-out: KAT2A MOLM-13 DC50
Method: MOLM-13 cells or NCI-H1048 cells were used for Western Blot analysis of KAT2A degradation. KAT2B degradation can be measured in a similar manner with NCI-H1048 cells.
MOLM-13 cells were maintained at 37° C. in 5% CO2 and 90% humidity in RPMI 1640 supplemented with 20% fetal bovine serum (FBS) and 1× penicillin/streptomycin. Cells were plated in full media at 1-2 million cells/2 mL in a 6-well tissue culture treated plate with or without compounds for 24 h at 37° C. in 5% CO2.
MOLM-13 cells or NCI-H1048 cells were washed with PBS, then lysed with RIPA buffer containing 1×protease and phosphatase inhibitors (SantaCruz Biotechnologies Cat #sc-24948A). Protein was isolated by centrifugation at 12,000×g for 10 minutes at 4° C. and supernatant was collected. Protein was quantified via Bradford assay. Samples were diluted to 4 μg lysate in 16 μL RIPA buffer and then 4 μL of Jess Sample Buffer. Samples were heated at 95° C. for 5 minutes. Samples were loaded onto 12-230 kDa Jess™ Separation Module, 8×25 capillary cartridges (SM-W004, Biotechne). Antibodies loaded were: Primary antibody for KAT2A (GCN5L2 (C26A10) Rabbit mAb (3305, CST)) and for KAT2B (PCAF (C14G9)) Rabbit mAb (3378, CST) at 1:1000 and Anti-Rabbit Detection Module for Jess™ (Cat No #DM-001, Biotechne). Signal was detected by chemiluminescence.
DC50 values were determined from percent reduction of protein as compared to the DMSO control.

KAT2A, sequence (Q92830 whole entry): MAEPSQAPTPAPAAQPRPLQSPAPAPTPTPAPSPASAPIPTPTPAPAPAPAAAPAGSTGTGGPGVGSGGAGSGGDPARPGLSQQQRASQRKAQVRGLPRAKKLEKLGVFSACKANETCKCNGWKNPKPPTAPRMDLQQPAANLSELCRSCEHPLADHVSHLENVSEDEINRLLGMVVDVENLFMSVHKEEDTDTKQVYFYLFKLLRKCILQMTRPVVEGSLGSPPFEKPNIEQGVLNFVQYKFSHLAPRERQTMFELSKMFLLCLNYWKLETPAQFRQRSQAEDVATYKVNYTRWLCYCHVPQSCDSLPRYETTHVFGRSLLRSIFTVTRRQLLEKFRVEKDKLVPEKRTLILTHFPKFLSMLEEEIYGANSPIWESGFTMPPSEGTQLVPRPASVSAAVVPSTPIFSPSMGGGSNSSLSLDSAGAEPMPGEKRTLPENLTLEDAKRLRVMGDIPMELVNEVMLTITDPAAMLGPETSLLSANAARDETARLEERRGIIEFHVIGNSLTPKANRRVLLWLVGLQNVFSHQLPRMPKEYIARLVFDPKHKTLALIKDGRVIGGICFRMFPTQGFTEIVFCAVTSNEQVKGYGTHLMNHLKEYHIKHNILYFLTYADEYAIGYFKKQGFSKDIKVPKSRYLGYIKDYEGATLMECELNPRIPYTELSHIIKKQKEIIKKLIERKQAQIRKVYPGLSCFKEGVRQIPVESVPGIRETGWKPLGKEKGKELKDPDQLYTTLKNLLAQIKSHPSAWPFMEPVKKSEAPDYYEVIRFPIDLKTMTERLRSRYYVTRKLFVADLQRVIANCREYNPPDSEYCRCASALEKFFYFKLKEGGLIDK

SMILES	DC50
CN1C[C@H](Nc2cnn(C)c(=O)c2Br)C[C@H](c2ccc(C(=O)N3CC4(C3)CN(c3cccc5c3C(=O)N(C3CCC(=O)NC3=O)C5=O)C4)cc2)C1 (stereo partly shown) [Compound 29]	< 1 nM
CN1C[C@H](Nc2cnn(C)c(=O)c2Br)C[C@H](c2ccc(C(=O)N3CC(Oc4ccc5c(c4)C(=O)N(C4CCC(=O)NC4=O)C5=O)C3)cc2)C1 (stereo partly shown) [Compound 30]	1 to 30 nM
CN1C[C@H](Nc2cnn(C)c(=O)c2Br)C[C@H](c2ccc(C(=O)OCC3CCN(c4cccc5c4C(=O)N(C4CCC(=O)NC4=O)C5=O)CC3)cc2)C1 (stereo partly shown) [Compound 32]	1 to 30 nM
CN1C[C@H](Nc2cnn(C)c(=O)c2Br)C[C@H](c2ccc(C(=O)N(C)c3cccc(Oc4ccc5c(c4)C(=O)N(C4CCC(=O)NC4=O)C5=O)c3)cc2)C1 (stereo partly shown) [Compound 34]	1 to 30 nM
CN1C[C@H](Nc2cnn(C)c(=O)c2Br)C[C@H](c2ccc(CNCC3CCC(COc4cccc5c4C(=O)N(C4CCC(=O)NC4=O)C5=O)CC3)cc2)C1 (stereo partly shown) [Compound 35]	< 1 nM
CN1C[C@H](Nc2cnn(C)c(=O)c2Br)C[C@H](c2ccc(CN3CC4(C3)CN(c3ccc5c(c3)CN(C3CCC(=O)NC3=O)C5=O)C4)cc2)C1 (stereo partly shown) [Compound 37]	< 1 nM
CN1C[C@H](Nc2cnn(C)c(=O)c2Br)C[C@H](c2ccc(COc3cccc4c3C(=O)N(C3CCC(=O)NC3=O)C4=O)cc2)C1 (stereo partly shown) [Compound 38]	1 to 30 nM
CN1C[C@H](Nc2cnn(C)c(=O)c2Br)C[C@H](c2ccc(C(=O)NCCCCCCOc3cccc4c3C(=O)N(C3CCC(=O)NC3=O)C4=O)cc2)C1 (stereo partly shown) [Compound 41]	< 1 nM
CN1C[C@H](Nc2cnn(C)c(=O)c2Br)C[C@H](c2ccc(C(=O)NCCCCCCCCOc3cccc4c3C(=O)N(C3CCC(=O)NC3=O)C4=O)cc2)C1 (stereo partly shown) [Compound 42]	1 to 30 nM
CN1C[C@H](Nc2cnn(C)c(=O)c2Br)C[C@H](c2ccc(C(=O)NCCOCCn3cc(COCCOc4cccc5c4C(=O)N(C4CCC(=O)NC4=O)C5=O)nn3)cc2)C1 (stereo partly shown) [Compound 43]	> 30 nM
CN1C[C@H](Nc2cnn(C)c(=O)c2Br)C[C@H](c2ccc(C(=O)N(C)CCOc3cccc4c3C(=O)N(C3CCC(=O)NC3=O)C4=O)cc2)C1 (stereo partly shown) [Compound 44]	1 to 30 nM
CN1C[C@H](Nc2nn(C)c(=O)c3cccnc23)C[C@H](c2ccc(C(=O)N3CCN(Cc4ccc(C(=O)Nc5cccc6c5C(=O)N(C5CCC(=O)NC5=O)C6=O)cc4)CC3)cc2)C1 (stereo partly shown) [Compound 47]	> 30 nM
CN1C[C@H](Nc2cnn(C)c(=O)c2Br)C[C@H](c2ccc(CN3CC4(C3)CN(c3cccc5c3C(=O)N(C3CCC(=O)NC3=O)C5=O)C4)cc2)C1 (stereo partly shown) [Compound 51]	> 30 nM
CN1C[C@H](Nc2cnn(C)c(=O)c2Br)C[C@H](c2ccc(C(=O)N3CCC(C#CCOc4ccc5c(c4)C(=O)N(C4CCC(=O)NC4=O)C5=O)CC3)cc2)C1 (stereo partly shown) [Compound 54]	< 1 nM
CN1C[C@H](Nc2cnn(C)c(=O)c2Br)C[C@H](c2ccc(C(=O)N(C)Cc3ccc(COc4cccc5c4C(=O)N(C4CCC(=O)NC4=O)C5=O)cc3)cc2)C1 (stereo partly shown) [Compound 55]	< 1 nM
CN1C[C@H](Nc2cnn(C)c(=O)c2Br)C[C@H](c2ccc(C(=O)N3CC4(CN(Cc5cccc6c5C(=O)N(C5CCC(=O)NC5=O)C6=O)C4)C3)cc2)C1 (stereo partly shown) [Compound 59]	1 to 30 nM
CN1C[C@H](Nc2cnn(C)c(=O)c2Br)C[C@H](c2ccc(C(=O)N3CC4(CN(Cc5ccc6c(c5)C(=O)N(C5CCC(=O)NC5=O)C6=O)C4)C3)cc2)C1 (stereo partly shown) [Compound 60]	1 to 30 nM
CN1C[C@H](Nc2cnn(C)c(=O)c2Br)C[C@H](c2ccc(C(=O)N3CC(Oc4cccc5c4C(=O)N(C4CCC(=O)NC4=O)C5=O)C3)cc2)C1 (stereo partly shown) [Compound 62]	1 to 30 nM
CN1C[C@H](Nc2cnn(C)c(=O)c2Br)C[C@H](c2ccc(C(=O)N3CCC(c4ccc5c(c4)CN(C4CCC(=O)NC4=O)C5=O)CC3)cc2)C1 (stereo partly shown) [Compound 63]	< 1 nM
CN1C[C@H](Nc2cnn(C)c(=O)c2Br)C[C@H](c2ccc(CN3CC(Oc4cccc5c4C(=O)N(C4CCC(=O)NC4=O)C5=O)C3)cc2)C1 (stereo partly shown) [Compound 64]	1 to 30 nM
CN1C[C@H](Nc2cnn(C)c(=O)c2Br)C[C@H](c2ccc(COc3ccc4c(c3)CN(C3CCC(=O)NC3=O)C4=O)cc2)C1 (stereo partly shown) [Compound 65]	> 30 nM
CN1C[C@H](Nc2cnn(C)c(=O)c2Br)C[C@H](c2ccc(CN3CCC(c4ccc5c(c4)CN(C4CCC(=O)NC4=O)C5=O)CC3)cc2)C1 (stereo partly shown) [Compound 66]	< 1 nM
CN1C[C@H](Nc2ccn(C)c(=O)c2Br)C[C@H](c2ccc(CN3CCC(c4ccc5c(c4)CN(C4CCC(=O)NC4=O)C5=O)CC3)cc2)C1 (stereo partly shown) [Compound 68]	< 1 nM

Next, values leading:

DC50	SMILES
< 1 nM	CN1C[C@H](Nc2cnn(C)c(=O)c2Br)C[C@H](c2ccc(C(=O)N3CCN(c4cccc5c4C(=O)N(C4CCC(=O)NC4=O)C5=O)CC3)cc2)C1 (stereo partly shown) [Compound 27]
< 1 nM	CN1C[C@H](Nc2cnn(C)c(=O)c2Br)C[C@H](c2ccc(C(=O)N(C)Cc3ccc(Oc4cccc5c4C(=O)N(C4CCC(=O)NC4=O)C5=O)cc3)cc2)C1 (stereo partly shown) [Compound 33]
1 to 30 nM	CN1C[C@H](Nc2cnn(C)c(=O)c2Br)C[C@H](c2ccc(CN3CCC(Oc4cccc5c4C(=O)N(C4CCC(=O)NC4=O)C5=O)CC3)cc2)C1 (stereo partly shown) [Compound 36]
< 1 nM	CN1C[C@H](Nc2cnn(C)c(=O)c2Br)C[C@H](c2ccc(C(=O)N3CCC(COc4cccc5c4C(=O)N(C4CCC(=O)NC4=O)C5=O)CC3)cc2)C1 (stereo partly shown) [Compound 45]
1 to 30 nM	CN1C[C@H](Nc2cnn(C)c(=O)c2Cl)C[C@H](c2ccc(C(=O)N3CCN(Cc4ccc(C(=O)Nc5cccc6c5C(=O)N(C5CCC(=O)NC5=O)C6=O)cc4)CC3)cc2)C1 (stereo partly shown) [Compound 46]
< 1 nM	CN(Cc1ccc(Oc2cccc3c2C(=O)N(C2CCC(=O)NC2=O)C3=O)cc1)Cc1ccc([C@H]2C[C@@H](Nc3cnn(C)c(=O)c3Br)CN(C)C2)cc1 (stereo partly shown) [Compound 48]
< 1 nM	CN1C[C@H](Nc2cnn(C)c(=O)c2Br)C[C@H](c2ccc(C(=O)N3CCN(Cc4ccc(Oc5cccc6c5C(=O)N(C5CCC(=O)NC5=O)C6=O)cc4)CC3)cc2)C1 (stereo partly shown) [Compound 49]
< 1 nM	CN1C[C@H](Nc2cnn(C)c(=O)c2Br)C[C@H](c2ccc(CN3CCN(Cc4ccc(Oc5cccc6c5C(=O)N(C5CCC(=O)NC5=O)C6=O)cc4)CC3)cc2)C1 (stereo partly shown) [Compound 50]
< 1 nM	CN1C[C@H](Nc2cnn(C)c(=O)c2Br)C[C@H](c2ccc(C(=O)N3CCN(Cc4cccc5c4C(=O)N(C4CCC(=O)NC4=O)C5=O)CC3)cc2)C1 (stereo partly shown) [Compound 52]
1 to 30 nM	CN1C[C@H](Nc2cnn(C)c(=O)c2Br)C[C@H](c2ccc(CN(C)c3ccc(Oc4cccc5c4C(=O)N(C4CCC(=O)NC4=O)C5=O)cc3)cc2)C1 (stereo partly shown) [Compound 53]
> 30 nM	CN1C[C@H](Nc2nn(C)c(=O)n(C)c2=O)C[C@H](c2ccc(C(=O)N3CCN(Cc4ccc(C(=O)Nc5cccc6c5C(=O)N(C5CCC(=O)NC5=O)C6=O)cc4)CC3)cc2)C1 (stereo partly shown) [Compound 56]
1 to 30 nM	CN1C[C@H](Nc2cnn(C)c(=O)c2Br)C[C@H](c2ccc(C(=O)N3CCN(Cc4cccc(C(=O)Nc5cccc6c5C(=O)N(C5CCC(=O)NC5=O)C6=O)c4)CC3)cc2)C1 (stereo partly shown) [Compound 57]
1 to 30 nM	CN1C[C@H](Nc2cnn(C)c(=O)c2Br)C[C@H](c2ccc(CN3CCN(Cc4cccc5c4C(=O)N(C4CCC(=O)NC4=O)C5=O)CC3)cc2)C1 (stereo partly shown) [Compound 58]
1 to 30 nM	CN1C[C@H](Nc2cnn(C)c(=O)c2Br)C[C@H](c2ccc(C(=O)N3CCN(Cc4ccc(C(=O)Nc5ccc6c(c5)C(=O)N(C5CCC(=O)NC5=O)C6=O)cc4)CC3)cc2)C1 (stereo partly shown) [Compound 61]
